Experiments:
[1] = system: conscious AC5KO and WT mice; test: HR and arterial pressure in conscious mice (ECG, micromanometer catheter); assay type: in vivo, mouse; settings: for decrease in HR: Ach 0.01 μg/g i.v.; for increase in HR: atropine 1 μg/g i.v.
Text: In AC5KO and WT mice, four ECG wires (New England Electric Wire Corporation, Lisbon, N.H., USA) were placed subcutaneously, a silicone elastomer tubing (Cardiovascular Instrument Corp., Wakefield, Mass., USA) was inserted into the right external jugular vein and a 1.4 F micromanometer catheter (Millar Instruments, Inc., Houston, Tex., USA) was inserted into the lower abdominal aorta via the femoral artery as described previously with some modifications (Uechi, M., Asai, K., Osaka, M., Smith, A., Sato, N., Wagner, T. E., Ishikawa, Y., Hayakawa, H., Vatner, D. E., Shannon, R. P., et al. (1998), Circ. Res. 82:416-423). The ECG wires, the silicone elastomer tubing and the micromanometer catheter were tunneled subcutaneously to the back, externalized, and secured in a plastic cap. On the day of the study, each mouse was placed in the mouse holder, the jugular venous catheter was accessed and connected to a microliter syringe (Hamilton Co., Reno, Nev., USA), the 1.4 F micromanometer catheter was connected to a recorder (Dash 4u; Astro-Med, Inc., West Warwick, R.I., USA) and the ECG wires were connected to an ECG amplifier (Gould Inc., Cleveland, Ohio, USA). All experiments were recorded with animals in the conscious state. After at least 6 hours recovery from the implantation of the catheter, when a stable HR was achieved, the baseline ECG and arterial pressure (AP) were recorded for 5 min. Ach(0.05 μg/g) was then administered intravenously (i.v.), and the ECG and AP recording were repeated. A recovery period of 15 min was allowed for the HR and AP to return to baseline before administering the next drug. Baseline HR slowing was examined in response to phenylephrine (0.2 μg/g i.v.).

[2] = system: ISO-stimulated AC activity in heart membranes; test: AC assay in heart membrane preparations; assay type: biochemical, mouse; settings: carbachol 10 μM
Procedure: Hearts were dissected from the mice and membrane preparations were prepared as described previously (Ishikawa, Y., Sorota, S., Kiuchi, K., Shannon, R. P., Komamura, K., Katsushika, S., Vatner, D. E., Vatner, S. F., and Homcy, C. J. (1994), J. Clin. Invest. 93:2224-2229.). Protein concentration was measured by the method of Bradford using bovine serum albumin as a standard (Bradford, M. M. (1976). Anal. Biochem. 72:248-254.). AC activity was measured as described previously (Kawabe, J., Iwami, G., Ebina, T., Ohno, S., Katada, T., Ueda, Y., Homcy, C. J., and Ishikawa, Y. (1994), J. Biol. Chem. 269:16554-16558). AC activity was linear within the incubation time up to 30 min. In order to harvest hearts for tissue cAMP content measurements, mice were allowed to acclimate to the surroundings in the laboratory for an hour before sacrifice. Freshly isolated hearts were briefly immersed in liquid nitrogen. […] The concentration of cAMP was determined with an RIA kit (PerkinElmer Life Sciences, Boston, Mass., USA).
Inventors then examined cAMP production in membranes from the hearts of AC5KO and WT at 6 months of age (FIG. 5A). The steady state AC activity was determined as the maximal capacity of cAMP production in the presence of ISO (100 μM ISO+100 μM GTP), GTPγS (100 μM) or forskolin (100 μM). […]

[3] = system: AC5KO and WT mice; test: Echocardiography in anesthetized mice during i.v. ISO infusion, with co-administered Ach; assay type: in vivo, mouse
Procedure: Adenylyl cyclase 5 knockout (AC5KO) mice (6.4±0.2 month old, n=6) and wild type (WT) mice (6.7±0.1 month old, n=6) of either sex from the same genetic background as the transgenic mice were used for the physiological studies. Measurements of LV ejection fraction (LVEF) were performed as described previously (Iwase, M., Uechi, M., Vatner, D. E., Asai, K., Shannon, R. P., Kudej, R. K., Wagner, T. E., Wight, D.C., Patrick, T. A., Ishikawa, Y., et al. (1997), Am. J. Physiol. 272:H585-589.). Briefly, after determination of body weight, mice were anesthetized with ketamine (0.065 mg/g), acepromazine (0.002 mg/g), and xylazine (0.013 mg/g) injected intraperitoneally and were allowed to breathe spontaneously. Echocardiography was performed using ultrasonography (Sequoia C256; Acuson Corporation, Mountain View, Calif., USA). A dynamically focused 15-MHz annular array transducer was applied from below, using a warmed saline bag as a standoff. M-mode echocardiographic measurements of the LV were performed at baseline and during intravenous infusion of ISO (0.005, 0.01, 0.02, and 0.04 μg/kg/min i.v. for 5 minutes each)(Abbott Laboratories Inc, North Chicago, Ill., USA) using an infusion pump (PHD 2000; Harvard Apparatus, Inc., Holliston, Mass., USA). The total amount of the infusion volume was <100 μL in each mouse. […]

[4] = system: WT, heterozygous and AC5KO mice; test: Rotor rod test before and after db-cAMP injection; assay type: in vivo, mouse; settings: for increase in time spent on the rod without falling: 30 minutes after db-cAMP injection; for rotor rod performance: 48 hours after injection
Procedure: The animals were tested for motor function 30 minutes after i. p. administration of 10 mg/kg of db-cAMP. The test was repeated after 48 hours of drug administration when the drug effect was completely eliminated. Similarly, intracranial injection of db-cAMP was conducted. Before drug injection, the mice were anesthetized with ketamine. Injections of db-cAMP into the mouse brain were performed at the following coordinates: for injection into the striatum: 1.70 mm anterior to the bregma, 1.1 mm to the right of the midline, and 4.1 mm deep. Three micro-liters of drug solution was loaded into an internal cannula needle (C315×33) with cannula tubing connected to a Hamilton syringe mounted onto a microinjection pump (Harvard Apparatus, Dover, Mass.). The drug solutions were delivered at a rate of 0.5 μl/min. Normal saline was injected in a sham control.
The rotor rod test is the most commonly used method to evaluate the motor function in rodents^106 but other methods are also available^107 to reinforce the findings of the rotor rod test. Such tests include rearing test, spontaneous movement study and pole test. The first test examines the frequency of vertical movements of mice and the second examines that of horizontal movements. Thus, spontaneous activity was determined both horizontally (locomotion) and vertically (rearings). The last test, the pole test, examines the degree of bradykinesia. In this test, mice were placed head upward on the top of a rough-surfaced pole. The time until they turned downward (Tturn) and the time until they climbed down to the floor were measured (TLA). Mice were placed in a cage and their movements were videotaped for analysis. Thus, spontaneous movements as an index of motor function were evaluated. Most important, these tests were used to evaluate the recovery of motor function upon cAMP administration and/or adenovirus-mediated gene transfer of AC5 in additional studies. The preliminary data were obtained from littermates of AC5KO, and WT males.
The inventors examined whether the locomotor activity of the AC5KO mouse was impaired compared to a normal mouse. At a glance, the AC5KO mice appeared normal, i.e., they were not catatonic or rigid. […] Inventors analyzed them with a rotor rod test in which mice were put on a rotor rod as shown below. In this task, animals had to make continuous adjustment in balance and posture to remain upright on a rod. The time that mice spent on the accelerating rotor-rod without falling was measured. The rod increased from 3 rpm to 30 rpm during each 5-min trial. […] At the 5th trial, there was a small, but significant decrease in their performance in heterozygous mice.

[5] = system: primary cultured striatal neurons; test: cAMP accumulation in primary cultured striatal neurons; assay type: cell-based, mouse; settings: neuronal cells from WT mice; forskolin 50 micro M, dopamine 100 micro M (FIG. 9)
Procedure: Reaction with various agonists in the presence of a phosphodiesterase inhibitor proceed for 10 minutes and are stopped by the addition of ice-cold 2.5% perchloric acid, followed by sonication and centrifugation. Pellets are dissolved in 0.1 N NaOH for protein measurements and the supernatants are subject to cAMP assay by radioimmunoassay after neutralization. To examine whether AC5 plays a major role in regulating cAMP production, receptor-stimulated cAMP production and its effect in the striatum was measured. The rationale for this study is as follows. Changes in cAMP signal upon receptor stimulation can be easily determined by measuring AC activity in intact neuronal cells because the striatal membrane preparations present a few problems. Determination of basal, GTPγS— and forskolin-stimulated AC activity may be readily done while receptor-regulated AC activity, both stimulatory and inhibitory, is not easy in the striatum. This is, at least partially, due to less abundant receptor expression and the disruption of the receptor/G protein/AC coupling during the process of membrane homogenization of the striatum. Therefore, the effect of receptor stimulation and its sequential changes in AC activity and further downstream events including the process of phosphorylation/dephosphorylation may be best examined using cultured cells or even the whole body. […]

CC(=O)OCC[N+](C)(C)C [Ach, acetylcholine]
decrease in HR ([1]; conscious AC5KO): 7.5%
decrease in HR ([1]; conscious WT): 22%

C[N+](C)(C)CCOC(N)=O [Carbachol]
inhibition of ISO-stimulated AC activity ([2]; AC5KO heart membranes): did not inhibit
decrease of ISO-stimulated AC activity ([2]; WT heart membranes): 21±3.4%

CC(C)NCC(O)c1ccc(O)c(O)c1 (stereo not shown) [ISO]
cardiac responses on LVEF and fractional shortening (FS) [3]: attenuated

CNC[C@H](O)c1cccc(O)c1 [Phenylephrine, phenylephrine]
baroreflex mediated slowing of HR ([1]; AC5KO compared with WT, phenylephrine 0.2 μg/g i.v.): less
systolic arterial pressure ([1]; both WT and AC5KO, phenylephrine 0.2 μg/g i.v.): increased systolic arterial pressure significantly

CN1[C@@H]2CC[C@H]1C[C@@H](OC(=O)C(CO)c1ccccc1)C2 (stereo partly shown) [atropine]
increase in HR ([1]; AC5KO): 19±7.5 beats/min
increase in HR ([1]; WT): 102±22.2 beats/min

CCCC(=O)Nc1ncnc2c1ncn2[C@@H]1O[C@@H]2COP(=O)(O)O[C@H]2[C@H]1OC(=O)CCC [db-cAMP]
increase in time spent on the rod without falling ([4]; AC5KO): approximately two-fold
rotor rod performance ([4]; AC5KO): dropped to the basal level
increase in time spent on the rod without falling ([4]; WT): 30%
rotor rod performance ([4]; WT): remained similar
increase in time spent on the rod without falling ([4]; heterozygous): 25%
rotor rod performance ([4]; heterozygous): remained similar

NCCc1ccc(O)c(O)c1 [dopamine]
levels of cAMP compared to untreated cells [5]: effective at increasing the levels of cAMP significantly
